Experiments:
sPLA2-IIA = molecular target: T1, sPLA2-IIA (Homo sapiens, UniProt P14555); assay: inhibition of sPLA2-IIA activity; type: biochemical; conditions: finding of the present invention
T1 sequence (P14555 21-144): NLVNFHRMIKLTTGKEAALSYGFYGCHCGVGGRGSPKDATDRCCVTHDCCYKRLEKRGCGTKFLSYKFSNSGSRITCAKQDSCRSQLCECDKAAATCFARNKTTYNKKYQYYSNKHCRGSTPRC

several sPLA2 isoforms = assay: inhibition of several sPLA2 isoforms; type: biochemical

SMILES | preferential inhibition of sPLA2-IIA (sPLA2-IIA) | inhibition of the activity of several sPLA2 isoforms (several sPLA2 isoforms)
CCc1c(C(=O)C(N)=O)c2c(OCC(=O)O)cccc2n1Cc1ccccc1 [Compound B] | preferentially inhibit sPLA2-IIA | 
CCc1c(C(=O)C(N)=O)c2c(OC)cc3ccccc3c2n1Cc1ccccc1 [R0032107A] | preferentially inhibit sPLA2-IIA | 
CCc1c(C(=O)C(N)=O)c2c(OCC(=O)O)cc3ccccc3c2n1Cc1ccccc1 [R0050907A] |  | inhibits the activity of several sPLA2 isoforms

From US8372594B2, “Secreted phospholipase A2 biomarkers for arthritis” (Case Western Reserve University, priority 2009, dated 2013)
